Data set [1] relates to tumor necrosis factor (α). Kind of data set: Cytokine Induction in Human Cells: tumor necrosis factor (α) secreted by PBMCs, ELISA. The format is cell-based. The conditions noted are these: incubated 18 to 24 hours, lowest concentration found to induce tumor necrosis factor. From the text:
(§1) An in vitro human blood cell system was used to assess cytokine induction by compounds of the invention. Activity is based on the measurement of interferon and tumor necrosis factor (α) (IFN and TNF, respectively) secreted into culture media as described by Testerman et. al. In “Cytokine Induction by the Immunomodulators Imiquimod and S-27609”, Journal of Leukocyte Biology, 58, 365–372 (September, 1995).
(§2) Whole blood is collected by venipuncture into EDTA vacutainer tubes from healthy human donors. Peripheral blood mononuclear cells (PBMCs) are separated from whole blood by density gradient centrifugation using Histopaque®-1077 (Sigma Chemicals, St. Louis, Mo.). The PBMCs are suspended at 3–4×10^6 cells/mL in RPMI 1640 medium containing 10% fetal bovine serum, 2 mM L-glutamine and 1% penicillin/streptomycin solution (RPMI complete). The PBMC suspension is added to 48 well flat bottom sterile tissue culture plates (Costar, Cambridge, Mass. or Becton Dickinson Labware, Lincoln Park, N.J.) containing an equal volume of RPMI complete media containing test compound.
(§3) The compounds are solubilized in dimethyl sulfoxide (DMSO). The DMSO concentration should not exceed a final concentration of 1% for addition to the culture wells.
(§4) The solution of test compound is added at 60 μM to the first well containing RPMI complete and serial (three fold or ten fold) dilutions are made. The PBMC suspension is then added to the wells in an equal volume, bringing the test compound concentrations to the desired range. The final concentration of PBMC suspension is 1.5–2×10^6 cells/mL. The plates are covered with sterile plastic lids, mixed gently and then incubated for 18 to 24 hours at 37° C. in a 5% carbon dioxide atmosphere.
(§5) Following incubation the plates are centrifuged for 5–10 minutes at 1000 rpm (˜200×g) at 4° C. The cell culture supernatant is removed with a sterile polypropylene pipette and transferred to sterile polypropylene tubes. Samples are maintained at −30 to −70° C. until analysis. The samples are analyzed for interferon (α) and tumor necrosis factor (α) by ELISA
Tumor necrosis factor (α) (TNF) concentration is determined using ELISA kits available from Genzyme, Cambridge, Mass.; R&D Systems, Minneapolis, Minn.; or Pharmingen, San Diego, Calif.
(§6) The table below lists the lowest concentration found to induce interferon and the lowest concentration found to induce tumor necrosis factor for each compound.

The next data set deals with interferon (α). Kind of data set: Cytokine Induction in Human Cells: interferon (α) secreted by PBMCs, ELISA. The format is cell-based. The following applies: incubated 18 to 24 hours, lowest concentration found to induce interferon.
From the text: as §1, §2, §3, §4, §5
Interferon (α) concentration is determined by ELISA using a Human Multi-Species kit from PBL Biomedical Laboratories, New Brunswick, N.J.
as §6

The values that follow come from patent publication US7199131B2, “Sulfonamide and sulfamide substituted imidazoquinolines” (3M Innovative Properties Company, priority 2001, dated 2007).

Structures can show the parent of a compound that is named as a salt.

As to `CCCCc1nc2c(N)nc3ccccc3c2n1CCCCNS(=O)(=O)c1cccc(N)c1` (as salt: hydrochloride), the melting point is 110.2 °C (dec.).

In turn, `CCCCc1nc2c(N)nc3ccccc3c2n1CCCCNS(=O)(=O)c1cccc([N+](=O)[O-])c1` (as salt: hydrochloride) [Example 7, N^1-[4-(4-Amino-2-butyl-1H-imidazo[4,5-c]quinolin-1-yl)butyl]-3-nitro-1-benzenesulfonamide Hydrochloride] gave a melting point of 176 to 178.2 °C.

`CCCCc1nc2c(N)nc3ccccc3c2n1CCCCNS(=O)(=O)c1ccc([N+](=O)[O-])cc1` (as salt: hydrochloride) [Example 9, N^1-[4-(4-Amino-2-butyl-1H-imidazo[4,5-c]quinolin-1-yl)butyl]-4-nitro-1-benzenesulfonamide Hydrochloride]: the melting point was 96 °C (dec.).

For `CCCCc1nc2c(N)nc3ccccc3c2n1CCCCNS(=O)(=O)c1ccc(N)cc1` (as salt: hydrochloride) [Example 10, N^1-[4-(4-Amino-2-butyl-1H-imidazo[4,5-c]quinolin-1-yl)butyl]-4-amino-1-benzenesulfonamide Hydrochloride], the melting point was 203.1 to 205 °C.

Consider `Cc1nc2c(N)nc3c(c2n1CCCCNS(C)(=O)=O)CCCC3` (as salt: hydrochloride) [Example 263, N-[4-(4-amino-2-methyl-6,7,8,9-tetrahydro-1H-imidazo[4,5-c]quinolin-1-yl)butyl]methanesulfonamide hydrochloride], for which the melting point is > 250 °C.

For `CCCCc1nc2c(N)nc3ccccc3c2n1CCCCNS(=O)(=O)c1cccc2c(N(C)C)cccc12` [Example 1, N^1-[4-(4-Amino-2-butyl-1H-imidazo[4,5-c]quinolin-1-yl)butyl]-5-(dimethylamino)-1-naphthalenesulfonamide], the melting point fell in the range of 223 to 224 °C.

Compound `CCCCc1nc2c(N)nc3ccccc3c2n1CCCCNS(=O)(=O)c1cccs1` [Example 3, N^2-[4-(4-Amino-2-butyl-1H-imidazo[4,5-c]quinolin-1-yl)butyl]-2-thiophenesulfonamide] showed a melting point of 137.5 to 141.5 °C.

As for `CCCCc1nc2c(N)nc3ccccc3c2n1CCCCNS(=O)(=O)Cc1ccccc1` [Example 4, N-[4-(4-Amino-2-butyl-1H-imidazo[4,5-c]quinolin-1-yl)butyl]phenylmethanesulfonamide], the melting point lay in the range of 197 to 199.5 °C.

The compound `CCCCc1nc2c(N)nc3ccccc3c2n1CCCCNS(=O)(=O)c1ccccc1` [Example 5, N^1-[4-(4-Amino-2-butyl-1H-imidazo[4,5-c]quinolin-1-yl)butyl]-1-benzenesulfonamide] returned a melting point of 75.5 to 79 °C.

For `CCCCc1nc2c(N)nc3ccccc3c2n1CCCCNS(=O)(=O)c1cccc([N+](=O)[O-])c1` [Example 7, N^1-[4-(4-Amino-2-butyl-1H-imidazo[4,5-c]quinolin-1-yl)butyl]-3-nitro-1-benzenesulfonamide Hydrochloride], the “Lowest Effective Concentration (μM) Tumor Necrosis Factor” value (shortened to “Lowest Effective Concentration”) in data set [1] (Hydrochloride) is “** (no induction was seen at any of the tested concentrations (0.12, 0.37, 1.11, 3.33, 10 and 30 μM))”. In addition, the minimal effective concentration in the data set on interferon (α) (Hydrochloride) was 0.01 µM.

Consider `CCCCc1nc2c(N)nc3ccccc3c2n1CCCCNS(=O)(=O)c1ccc([N+](=O)[O-])cc1` [Example 9, N^1-[4-(4-Amino-2-butyl-1H-imidazo[4,5-c]quinolin-1-yl)butyl]-4-nitro-1-benzenesulfonamide Hydrochloride], for which the “Lowest Effective Concentration” value in data set [1] (Hydrochloride) is “** (no induction was seen at any of the tested concentrations (0.12, 0.37, 1.11, 3.33, 10 and 30 μM))”. In the data set with interferon (α) (Hydrochloride), this compound showed a minimal effective concentration of 0.04 µM.

Consider `CCCCc1nc2c(N)nc3ccccc3c2n1CCCCNS(=O)(=O)c1cccc2cnccc12` [Example 11, N^5-[4-(4-Amino-2-butyl-1H-imidazo[4,5-c]quinolin-1-yl)butyl]-5-isoquinolinesulfonamide], for which the melting point is 96 °C (dec.).

`COc1ccc(Cc2nc3c(N)nc4ccccc4c3n2CCCCNS(C)(=O)=O)cc1` [Example 12, N-[4-(4-Amino-2-(4-methoxybenzyl)-1H-imidazo[4,5-c]quinolin-1-yl]butyl]methanesulfonamide] returned a melting point of 78.1 to 79.5 °C.

`COCCc1nc2c(N)nc3c(c2n1CCCCNS(=O)(=O)c1ccc(F)cc1)CCCC3` [Example 14, N^1-{4-[4-Amino-2-(2-methoxyethyl)-6,7,8,9-tetrahydro-1H-imidazo[4,5-c]quinolin-1-yl]butyl}-4-fluoro-1-benzenesulfonamide] had a melting point of 191 to 193 °C.

`Nc1nc2ccccc2c2c1nc(-c1ccccc1)n2CCCCNS(=O)(=O)c1ccc(F)cc1` [Example 15, N-[4-(4-Amino-2-phenyl-1H-imidazo[4,5-c]quinolin-1-yl)butyl]-4-fluoro-1-benzenesulfonamide] returned a melting point of 214 to 216 °C.

`CS(=O)(=O)NCCCCn1c(-c2ccccc2)nc2c(N)nc3ccccc3c21` [Example 16, N-[4-(4-Amino-2-phenyl-1H-imidazo[4,5-c]quinolin-1-yl)butyl]methanesulfonamide] registered a melting point of 234 to 235 °C.

With `CCCCc1nc2c(N)nc3ccccc3c2n1CCNS(C)(=O)=O` [Example 34, N-[2-(4-Amino-2-butyl-1H-imidazo[4,5-c]quinolin-1-yl)ethyl]methanesulfonamide Trifluoroacetate], the minimal effective concentration in data set [1] was found to be 0.37 µM; in the data set on interferon (α) it was 0.04 µM.

Regarding `CCCCc1nc2c(N)nc3ccccc3c2n1CCNS(=O)(=O)C(F)(F)F` [Example 35, N-[2-(4-Amino-2-butyl-1H-imidazo[4,5-c]quinolin-1-yl)ethyl]trifluoromethanesulfonamide Trifluoroacetate], the minimal effective concentration is reported as 10 µM in data set [1] and 1.11 µM in the data set on interferon (α).

In the case of `CS(=O)(=O)NCCCCn1cnc2c(N)nc3c(c21)CCCC3` [Example 72, N-[4-(4-Amino-6,7,8,9-tetrahydro-1H-imidazo[4,5-c]quinolin-1-yl)butyl]methanesulfonamide Trifluoroacetate], the “Lowest Effective Concentration” value in data set [1] was “** (no induction was seen at any of the tested concentrations (0.12, 0.37, 1.11, 3.33, 10 and 30 μM))”. Further, the minimal effective concentration with interferon (α) amounted to 3.33 µM.

For `CCCCc1nc2c(N)nc3ccccc3c2n1CCCCNS(=O)(=O)C[C@@]12CC[C@@H](CC1=O)C2(C)C` [Example 89], the values for the minimal effective concentration (in data set [1] (PBMC); in the data set on interferon (α) (PBMC)) were 1 µM and 0.001 µM, respectively.

`COCCc1nc2c(N)nc3ccccc3c2n1CCCCN1CCCS1(=O)=O` [Example 266, 1-[4-(1,1-dioxidoisothiazolidin-2-yl)butyl]-2-(2-methoxyethyl)-1H-imidazo[4,5-c]quinolin-4-amine] displayed a melting point of 156.4 to 157.7 °C.

Compound `CCS(=O)(=O)NCCCCn1c(C)nc2c(N)nc3ccccc3c21` [Example 269, N-[4-(4-amino-2-methyl-1H-imidazo[4,5-c]quinolin-1-yl)butyl]ethanesulfonamide] displayed a melting point of 210.7 to 211.6 °C.

Take `CS(=O)(=O)NCCCCn1c(CC2CC2)nc2c(N)nc3ccccc3c21` [Example 270, N-{4-[4-amino-2-(cyclopropylmethyl)-1H-imidazo[4,5-c]quinolin-1-yl]butyl}methanesulfonamide]: the melting point is 199.7 to 200.7 °C.
